Where a name gives a salt, the structure may show the parent alone.
Molecular target: Human D1 Receptor (Homo sapiens (Human), UniProt P21728)
Assay: Human D1 Receptor Binding Assay ([3H]-SCH23390 competition)
Conditions: competition with 0.5 nM [3H]-SCH23390, over-expressing LTK human cell lines, 30 min at 37° C.; values marked ^a are from a single determination; read-out: Human D1 Receptor Binding, Ki (nM); Geometric mean of 2-4 determinations (unless otherwise indicated)
Method: D1 binding assays were performed using over-expressing LTK human cell lines. […] These ligand and tissue concentrations were used in time course studies to determine linearity and equilibrium conditions for binding. […] The pellet was resuspended in assay buffer [50 mM Tris (pH 7.4@ RT) containing 4 mM MgSO4 and 0.5 mM EDTA]. […] Non-specific binding was determined by radioligand binding in the presence of a saturating concentration of (+)-Butaclamol (10 μM), a D1 antagonist. After a 30 minute incubation period at 37° C., assay samples were rapidly filtered through Unifilter-96 GF/B PEI-coated filter plates and rinsed with 50 mM Tris buffer (pH 7.4 at 4° C.). […] Ki values were calculated according to the Cheng-Prusoff equation: […]

Human D1 Receptor, sequence (P21728 whole entry): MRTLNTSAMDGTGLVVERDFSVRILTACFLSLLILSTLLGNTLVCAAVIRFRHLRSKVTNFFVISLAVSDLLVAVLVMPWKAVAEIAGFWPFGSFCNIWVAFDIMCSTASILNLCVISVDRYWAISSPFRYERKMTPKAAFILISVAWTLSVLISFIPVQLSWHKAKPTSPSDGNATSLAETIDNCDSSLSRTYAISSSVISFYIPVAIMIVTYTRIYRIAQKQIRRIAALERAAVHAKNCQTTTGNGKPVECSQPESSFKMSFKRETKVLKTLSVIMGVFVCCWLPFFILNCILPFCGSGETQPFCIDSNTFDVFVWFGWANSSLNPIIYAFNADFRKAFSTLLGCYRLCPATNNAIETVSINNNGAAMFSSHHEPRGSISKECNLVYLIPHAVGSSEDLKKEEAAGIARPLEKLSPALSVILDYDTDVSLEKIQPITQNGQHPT

Question: Which Ki does the source give for `Cc1cc(Oc2nccc3onc(C)c23)ccc1-c1c(C)n[nH]c(=O)c1C` [Example 16, 4,6-dimethyl-5-{2-methyl-4-[(3-methyl[1,2]oxazolo[4,5-c]pyridin-4-yl)oxy]phenyl}pyridazin-3(2H)-one, trifluoroacetic acid salt] here?
Answer: The Ki was 326 nM.

Question: With `Cc1cc(Oc2ncnc3occc23)ccc1-c1c(C)ncc(=O)n1C` [Example 3, 6-[4-(furo[2,3-d]pyrimidin-4-yloxy)-2-methylphenyl]-1,5-dimethylpyrazin-2(1H)-one] as the compound, how does the Ki read?
Answer: The Ki was 196 nM.

Question: Which Ki does the source give for `Cc1cc(Oc2ncnc3occc23)ccc1-c1c(C)ncc(=O)n1C` (single isomer, unassigned) [Example 5, (+)-6-[4-(furo[2,3-d]pyrimidin-4-yloxy)-2-methylphenyl]-1,5-dimethylpyrazin-2(1H)-one] here?
Answer: The Ki was 400 nM.

Question: `Cc1cc(Oc2ncnc3occc23)ccc1-c1c(C)n[nH]c(=O)c1C` (single isomer, unassigned) [Example 8, (−)-5-[4-(furo[2,3-d]pyrimidin-4-yloxy)-2-methylphenyl]-4,6-dimethylpyridazin-3(2H)-one] was tested. Which Ki did it give?
Answer: The Ki was 40.2 nM.

Question: Which Ki does the source give for `Cc1c(-c2ccc(Oc3ncnc4occc34)cc2)n(C2CC2)c(=O)[nH]c1=O` [Example 21, 1-cyclopropyl-6-[4-(furo[2,3-d]pyrimidin-4-yloxy)phenyl]-5-methylpyrimidine-2,4(1H,3H)-dione] here?
Answer: Its Ki is 122 nM.

Question: `CCc1c(-c2ccc(Oc3ncnc4occc34)cc2)n(C2CC2)c(=O)[nH]c1=O` [Example 22, 1-cyclopropyl-5-ethyl-6-[4-(furo[2,3-d]pyrimidin-4-yloxy)phenyl]pyrimidine-2,4(1H,3H)-dione] was tested. Which Ki did it give?
Answer: Its Ki is 142 nM.

Question: With `Cc1c(-c2ccc(Oc3nccc4onc(C)c34)cc2)n(C)c(=O)[nH]c1=O` [Example 15, 1,5-dimethyl-6-{4-[(3-methyl[1,2]oxazolo[4,5-c]pyridin-4-yl)oxy]phenyl}pyrimidine-2,4(1H,3H)-dione] as the compound, how does the Ki read?
Answer: Its Ki is 280 nM.

Question: For `Cc1c(-c2ccc(Oc3ncnc4occc34)cc2)n(C)c(=O)[nH]c1=O` [Example 9, 6-[4-(furo[2,3-d]pyrimidin-4-yloxy)phenyl]-1,5-dimethylpyrimidine-2,4(1H,3H)-dione], which Ki is on record?
Answer: The Ki was 142 nM.

Question: For `Cc1cc(Oc2ncnc3occc23)ccc1-c1cn[nH]c(=O)c1C` [Example 14, 5-[4-(furo[2,3-d]pyrimidin-4-yloxy)-2-methylphenyl]-4-methylpyridazin-3(2H)-one], which Ki is on record?
Answer: The Ki was 372 nM.

Question: With `Cc1cc(Oc2nccc3[nH]cnc23)ccc1-c1c(C)ncnc1C#N` [Example 12, 5-[4-(1H-imidazo[4,5-c]pyridin-4-yloxy)-2-methylphenyl]-6-methylpyrimidine-4-carbonitrile] as the compound, how does the Ki read?
Answer: The Ki was 367 nM.

Question: How did the Ki turn out when `Cc1cc(Oc2ncnc3occc23)ccc1-c1c(C)ncc(=O)n1C` (single isomer, unassigned) [Example 4, (−)-6-[4-(furo[2,3-d]pyrimidin-4-yloxy)-2-methylphenyl]-1,5-dimethylpyrazin-2(1H)-one] was run?
Answer: The Ki was 127 nM.

Question: Which Ki does the source give for `CCc1c(-c2ccc(Oc3ncnc4occc34)cc2)n(C)c(=O)[nH]c1=O` [Example 18, 5-ethyl-6-[4-(furo[2,3-d]pyrimidin-4-yloxy)phenyl]-1-methylpyrimidine-2,4(1H,3H)-dione] here?
Answer: The Ki was 274 nM.

Question: `CCc1c(-c2ccc(Oc3ncnc4occc34)cc2)n(CC)c(=O)[nH]c1=O` [Example 23, 1,5-diethyl-6-[4-(furo[2,3-d]pyrimidin-4-yloxy)phenyl]pyrimidine-2,4(1H,3H)-dione] was tested. Which Ki did it give?
Answer: The Ki was 309 nM.

Question: Which Ki does the source give for `Cc1cc(Oc2ncnc3occc23)ccc1-c1c(C)n[nH]c(=O)c1C` [Example 6, 5-[4-(furo[2,3-d]pyrimidin-4-yloxy)-2-methylphenyl]-4,6-dimethylpyridazin-3(2H)-one] here?
Answer: The Ki was 44.7 nM.

Question: Which Ki does the source give for `Cc1n[nH]c(=O)c(C)c1-c1ccc(Oc2ncnc3occc23)cc1` [Example 13, 5-[4-(furo[2,3-d]pyrimidin-4-yloxy)phenyl]-4,6-dimethylpyridazin-3(2H)-one] here?
Answer: Its Ki is 70.3 nM.

Question: How did the Ki turn out when `CCn1c(-c2ccc(Oc3ncnc4occc34)cc2)c(C)c(=O)[nH]c1=O` [Example 20, 1-ethyl-6-[4-(furo[2,3-d]pyrimidin-4-yloxy)phenyl]-5-methylpyrimidine-2,4(1H,3H)-dione] was run?
Answer: The Ki was 179 nM.

Question: Which Ki does the source give for `Cc1cc(Oc2ncnc3occc23)ccc1-c1c(C)n[nH]c(=O)c1C` (single isomer, unassigned) [Example 7, (+)-5-[4-(furo[2,3-d]pyrimidin-4-yloxy)-2-methylphenyl]-4,6-dimethylpyridazin-3(2H)-one] here?
Answer: Its Ki is 30.7 nM.

Question: How did the Ki turn out when `COCCn1c(-c2ccc(Oc3ncnc4occc34)cc2)c(C)c(=O)[nH]c1=O` [Example 19, 6-[4-(furo[2,3-d]pyrimidin-4-yloxy)phenyl]-1-(2-methoxyethyl)-5-methylpyrimidine-2,4(1H,3H)-dione] was run?
Answer: Its Ki is 900 nM.

Question: For `Cc1cc(Oc2nccc3onc(C)c23)ccc1-c1c(C)ncc(=O)n1C` [Example 17, 1,5-dimethyl-6-{2-methyl-4-[(3-methyl[1,2]oxazolo[4,5-c]pyridin-4-yl)oxy]phenyl}pyrazin-2(1H)-one, trifluoroacetic acid salt], which Ki is on record?
Answer: The Ki was 1730 nM.

Source: patent US10077272B2, “Heteroaromatic compounds and their use as dopamine D1 ligands” (PFIZER INC., priority 2014, dated 2018)
